{"source": "patent US20140163026A1", "about": "“8-ETHYL-6-(ARYL)PYRIDO[2,3-D]PYRIMIDIN-7(8H)-ONES FOR THE TREATMENT OF NERVOUS SYSTEM DISORDERS AND CANCER” (Afraxis Holdings, Inc., priority 2011, published 2014)", "key": {"[1]": {"test_system": "NF2−/− mesothelioma cells (NCI-H226)", "experiment": "Growth inhibition of NF2 deficient cells (CellTiter-Glo)", "format": "cell-based", "conditions": "0 μM-30 μM, 72 hours, FIG. 7", "protocol": "(§1) NF2 deficient cell lines were cultured in the appropriate medium. Once enough cells have propagated, plates of all adherent lines were seeded at 5,000-10,000 cells/well (depending on cell line) in a total volume of 50 μL, and plates of all suspension lines at 10,000-20,000 cells/well (depending on cell line) in a total volume of 50 μL. Plates were placed in a humidified cell culture incubator overnight to allow adherent cells to attach.\n(§2) 10 mM stocks of each PAK inhibitor compound in DMSO were prepared. Dilutions were performed with media to provide 1% DMSO 2× stock solutions of each PAK inhibitor compound.\n(§3) 50 μL of all PAK inhibitor compound 2× stocks were added to appropriate wells already containing 50 μL of cells and medium to expose cells to the final concentrations of compounds required. 50 μL of media was added to media and cell control wells and 50 μL of mix to vehicle control wells. At the same time as drug exposure, a CTG (CellTiter-Glo Assay) assay was performed on the 0 hr plate to obtain a 0 hr count. Cells were exposed to PAK inhibitor compounds or a DMSO control for 72 hours. Following the 72 hour exposure period, all remaining plates were assayed using CTG.\n(§4) At the end of the 72 hour exposure period, plates were removed for a CTG assay from 37° C., 5% CO2 incubator and place on the bench at room temperature for 30 mins. 100 μL CTG reagent was added to each well, mixed for 2 minutes, followed by a further 10 minute incubation at room temperature. Luminescence for each well was determined.\n(§5) Growth inhibition percent was calculated using the following equation: (Growth %=(Sample Value−T0Ave)/(Max−T0Ave)*100).\nNF2^−/− mesothelioma cells (e.g., NCI-H226 cells) were treated with varying concentrations of a PAK inhibitor compound disclosed in Examples 33, 84, or 122."}, "Nf2−/− SC4 cells": {"test_system": "Nf2−/− SC4 cells", "experiment": "Growth inhibition of NF2 deficient cells (CellTiter-Glo)", "format": "cell-based, mouse", "conditions": "1 uM concentration for 72 hours, FIG. 4", "protocol": "as §1, §2\nas §3, with “Cells were exposed to PAK inhibitor compounds or a DMSO control for 72 hours. Following the 72 hour exposure period, all remaining plates were assayed using CTG.” left out\nAt the end of the 72 hour exposure period, plates were removed for a CTG assay from 37° C., 5% CO2 incubator and place on the bench at room temperature for 30 mins. […] Luminescence for each well was determined.\nGrowth inhibition percent was calculated using the following equation: (Growth %=(Sample Value−T0Ave)/(Max−T0Ave)*100). […]"}, "[2]": {"test_system": "Nf2−/− SC4 cells transplanted into the sciatic nerve sheath of NOD/SCID mice", "experiment": "Orthotopic NF2 deficient schwannoma mouse model, tumor weight", "format": "in vivo", "conditions": "intraneural Nf2−/− cells, FIG. 5", "description": "The NF2 protein is absent in ˜100% of sporadic schwannomas. Thus, an NF2 deficient-schwanoma mouse model was generated and used to evaluate treatment of sporadic schwannomas with a PAK inhibitor compound disclosed herein.\nMurine Nf2^−/− cells may be generated by various means. For example, NF2^−/− cells may be generated by administering an shRNA or siRNA targeting an Nf2 gene, thereby disrupting the Nf2 gene. In another example, NF2^−/− cells may be generated by using a Cre recombinase.\nNf2^−/− SC4 cells may be generated by using a Cre recombinase. Pure populations of embryonic SC4 cells were isolated from Nf 2^loxP/loxP− mice at about embryonic day 13.5. […]\nNf2^−/− cells (e.g., Nf2^−/− SC4 control cells) were transduced by lentiviruses carrying pLuc-mCherry and sorted by FACS. […] Tumor progression was monitored weekly by bioluminescence imaging (BLI) according to the manufacturer's instructions on an IVIS-200 system. The mice were sacrificed and the tumors from the vehicle control treated and PAK inhibitor treated mice were measured.\nNF2^−/− cells (e.g., Nf2^−/− SC4 control cells) were transduced by lentiviruses carrying pLuc-mCherry and sorted by FACS. […] Tumor progression was monitored weekly by bioluminescence imaging (BLI) according to the manufacturer's instructions on an IVIS-200 system. […]\nAt various time points, treatment efficacy was determined. […]"}, "SK-MES-1 cells": {"test_system": "SK-MES-1 cells", "experiment": "Growth inhibition of PAK1 amplified NSCLC cells (CellTiter-Glo)", "format": "cell-based", "conditions": "0 μM-30 μM, 72 hours, FIG. 10", "protocol": "as §1, with “The PAK1 amplified” for “NF2 deficient”\nas §2\nas §3, with “50” for “50 μL of all PAK inhibitor compound 2× stocks were added to appropriate wells already containing 50 μL of cells and medium to expose cells to the final concentrations of compounds required. 50”\nas §4, §5"}, "NCI-H520 cells": {"test_system": "NCI-H520 cells", "experiment": "Growth inhibition of PAK1 amplified NSCLC cells (CellTiter-Glo)", "format": "cell-based", "conditions": "0 μM-30 μM, 72 hours, FIG. 9", "protocol": "as §1, with “The PAK1 amplified” for “NF2 deficient”\nas §2\nas §3, with “50” for “50 μL of all PAK inhibitor compound 2× stocks were added to appropriate wells already containing 50 μL of cells and medium to expose cells to the final concentrations of compounds required. 50”\nas §4, §5"}, "EBC-1 cells": {"test_system": "EBC-1 cells", "experiment": "Growth inhibition of PAK1 amplified NSCLC cells (CellTiter-Glo)", "format": "cell-based", "conditions": "0 μM-30 μM, 72 hours, FIG. 8", "protocol": "as §1, with “The PAK1 amplified” for “NF2 deficient”\nas §2\nas §3, with “50” for “50 μL of all PAK inhibitor compound 2× stocks were added to appropriate wells already containing 50 μL of cells and medium to expose cells to the final concentrations of compounds required. 50”\nas §4, §5"}}}
{"smiles": "CCn1c(=O)c(-c2ccc(-c3cncs3)cc2Cl)cc2cnc(Nc3ccc(N4CCN(C)CC4)cc3)nc21", "note": "[Example 84]", "values": [{"measurement": "growth (%) with increasing concentration", "setting": "[1]", "value": "the growth (%) of the cells reduced"}, {"measurement": "cell number compared to DMSO control treated cells", "setting": "Nf2−/− SC4 cells", "value": "reduction in cell number"}, {"measurement": "average tumor weight versus vehicle control treated mice", "setting": "[2]", "value": "less than the average tumor weight of the vehicle control treated mice"}]}
{"smiles": "CCn1c(=O)c(-c2ccc(-c3cccnc3F)cc2Cl)cc2cnc(Nc3ccc(N4CCN(C)CC4)cc3)nc21", "note": "[Example 33]", "values": [{"measurement": "growth (%) with increasing concentration", "setting": "[1]", "value": "the growth (%) of the cells reduced"}, {"measurement": "growth (%) with increasing concentration", "setting": "SK-MES-1 cells", "value": "the growth (%) decreased"}, {"measurement": "growth (%) with increasing concentration", "setting": "NCI-H520 cells", "value": "the growth (%) decreased"}, {"measurement": "growth (%) with increasing concentration", "setting": "EBC-1 cells", "value": "the growth (%) decreased"}, {"measurement": "cell number compared to DMSO control treated cells", "setting": "Nf2−/− SC4 cells", "value": "reduction in cell number"}]}
